Assay results as given in publication PMC10178204, “Peptaibol Analogs Show Potent Antibacterial Activity against Multidrug Resistant Opportunistic Pathogens” (International Journal of Molecular Sciences, 2023).
≈ marks a conversion by molar mass, not a printed value. Non-standard residues stand in square brackets, D forms with d. Residues, ends and D or L forms follow the SMILES beside them. *: point of attachment. Octanoyl = CCCCCCCC(=O)*; Aib = CC(C)(N)C(=O)O

Experiments:
[1] = tested on: Streptococcus pyogenes ATCC 12344; conditions: for MIC Spy: MHB, 5 × 10^5 CFU/mL, 18 h, 35 °C, triplicate
From the text: (§1) The antibacterial activity of the peptides was initially assessed on a panel of representative Gram-positive and Gram-negative organisms of high clinical relevance and commonly responsible for bacterial infections in both animals and humans. Bacillus subtilis ATCC 6633 (Bsu) was also included as a rod-shaped model Gram-positive organism. This first panel comprised: Enterococcus faecalis ATCC 29212 (Efa); Streptococcus pyogenes ATCC 12344 (Spy); and Staphylococcus aureus ATCC 25923 (Sau); Gram-negative: Escherichia coli CCUGT (Eco), Klebsiella pneumoniae ATCC 13833 (Kpn), Acinetobacter baumannii ATCC 17978 (Aba), and Pseudomonas aeruginosa ATCC 27853 (Pae) (Table 2). Both the minimum inhibitory concentration (MIC, Table 2) and the minimum bactericidal concentration (MBC, Table S1, Supporting Material) were determined.
(§2) The minimum inhibitory concentration (MIC) and the minimum bactericidal concentration (MBC) of the compounds were determined in triplicate using Mueller–Hinton broth (MHB). […] Therefore, we decided to dissolve all peptides in DMSO to a final concentration of 25 mg/mL, for consistency. The bacteria inoculum was 5 × 10^5 CFU/mL, as recommended by CLSI (Document M07-A10, 2015). […] Reference-type strains, including representatives of both Gram-positive bacteria (Bacillus subtilis ATCC 6633, Enterococcus faecalis ATCC 29212, Staphylococcus aureus ATCC 25923, the methicillin-resistant Staphylococcus aureus ATCC 43300 (MRSA), Streptococcus pyogenes ATCC 12344) and Gram-negative bacteria (Escherichia coli CCUGT, Klebsiella pneumoniae ATCC 13833, Pseudomonas aeruginosa ATCC 27853, and Acinetobacter baumannii ATCC 17978), were acquired from ATCC or CCUG culture collections. Other antibiotic-resistant clinical isolates were present in our collection at the University Teaching Hospital (Azienda Ospedaliero-Universitaria Senese ‘Santa Maria alle Scotte’) in Siena, Tuscany, Italy. Specifically, MDR carbapenem-hydrolyzing class D β-lactamase-producing Acinetobacter baumannii and metallo-β-lactamase-producing Pseudomonas aeruginosa were used in this study (Table 4).

[2] = tested on: Escherichia coli CCUGT; conditions: 18 h; for MIC Eco: MHB, 5 × 10^5 CFU/mL, 35 °C, triplicate
From the text: as §1, §2

[3] = tested on: Pseudomonas aeruginosa ATCC 27853; conditions: for MIC Pae: MHB, 5 × 10^5 CFU/mL, 18 h, 35 °C, triplicate
From the text: as §1, §2

[4] = tested on: Bacillus subtilis ATCC 6633; conditions: for MBC Bsu: ATCC 6633, 18 h; for MIC Bsu: MHB, 5 × 10^5 CFU/mL, 18 h, 35 °C, triplicate
From the text: as §1, §2

[5] = tested on: Klebsiella pneumoniae ATCC 13833; conditions: for MIC Kpn: MHB, 5 × 10^5 CFU/mL, 18 h, 35 °C, triplicate
From the text: as §1, §2

[6] = tested on: Acinetobacter baumannii ATCC 17978; conditions: for MIC Aba: MHB, 5 × 10^5 CFU/mL, 18 h, 35 °C, triplicate
From the text: as §1, §2

[7] = tested on: Staphylococcus aureus ATCC 25923; conditions: for MIC Sau: MHB, 5 × 10^5 CFU/mL, 18 h, 35 °C, triplicate
From the text: as §1, §2

[8] = tested on: Enterococcus faecalis ATCC 29212; conditions: for MIC Efa: MHB, 5 × 10^5 CFU/mL, 18 h, 35 °C, triplicate
From the text: as §1, §2

SMILES	MIC Spy [1] [µg/mL]	MIC Eco [2] [µg/mL]	MIC Pae [3] [µg/mL]	MBC Bsu [4] [µg/mL]	MIC Bsu [4] [µg/mL]	MIC Kpn [5] [µg/mL]	MIC Aba [6] [µg/mL]	MIC Sau [7] [µg/mL]	MIC Efa [8] [µg/mL]	MBC Spy ([1]; ATCC 12344, 18 h) [µg/mL]	MBC Eco ([2]; CCUGT) [µg/mL]	MBC Pae ([3]; ATCC 27853, 18 h) [µg/mL]	MBC Kpn ([5]; ATCC 13833, 18 h) [µg/mL]	MBC Aba ([6]; ATCC 17978, 18 h) [µg/mL]	MBC Sau ([7]; ATCC 25923, 18 h) [µg/mL]	MBC Efa ([8]; ATCC 29212, 18 h) [µg/mL]
CCCCCCCC(=O)NC(C)(C)C(=O)N[C@@H](CCCCN)C(=O)N[C@@H](CCCCN)C(=O)N[C@@H](CC(C)C)C(=O)N[C@@H](CC(C)C)C(N)=O [Peptide 13, 1-Oct-Aib-Lys-Lys-Leu-Leu-NH2] (Octanoyl-[Aib]KKLL-NH2)	> 128	> 128	> 128	64 (≈ 90 µM)	32 (≈ 45 µM)	> 128	> 128	> 128	> 128	–	–	–	–	–	–	–
CCCCCCCC(=O)N[C@@H](CC(C)C)C(=O)NC(C)(C)C(=O)N[C@@H](CCCCN)C(=O)N[C@H](C(N)=O)[C@@H](C)CC [Peptide 14, 1-Oct-Leu-Aib-Lys-Ile-NH2] (Octanoyl-L[Aib]KI-NH2)	> 128	> 128	> 128	–	> 128	> 128	> 128	> 128	> 128	–	–	–	–	–	–	–
CCCCCCCC(=O)N[C@@H](CC(C)C)C(=O)N[C@@H](CCCCN)C(=O)NC(C)(C)C(=O)N[C@@H](CC(C)C)C(N)=O [Peptide 18, 1-Oct-Leu-Lys-Aib-Leu-NH2] (Octanoyl-LK[Aib]L-NH2)	128 (≈ 220 µM)	> 128	> 128	> 128	128 (≈ 220 µM)	> 128	> 128	> 128	> 128	–	–	–	–	–	–	–
CCCCCCCC(=O)NC(C)(C)C(=O)N[C@@H](CCCCN)C(=O)N[C@@H](CCCCN)C(=O)N[C@@H](CC(C)C)C(=O)NC(C)(C)C(=O)NCC(=O)N[C@H](C(=O)N[C@@H](CC(C)C)C(N)=O)[C@@H](C)CC [Peptide 12, 1-Oct-Aib-Lys-Lys-Leu-Aib-Gly-Ile-Leu-NH2] (Octanoyl-[Aib]KKL[Aib]GIL-NH2)	16 (≈ 16.6 µM)	16 (≈ 16.6 µM)	64 (≈ 66.2 µM)	16 (≈ 16.6 µM)	4 (≈ 4.14 µM)	64 (≈ 66.2 µM)	32 (≈ 33.1 µM)	16 (≈ 16.6 µM)	32 (≈ 33.1 µM)	16 (≈ 16.6 µM)	64 (≈ 66.2 µM)	> 128	> 128	32 (≈ 33.1 µM)	16 (≈ 16.6 µM)	32 (≈ 33.1 µM)
CCCCCCCC(=O)N[C@@H](CC(C)C)C(=O)NC(C)(C)C(=O)N[C@@H](CCCCN)C(=O)N[C@@H](CC(C)C)C(N)=O [Peptide 16, 1-Oct-Leu-Aib-Lys-Leu-NH2] (Octanoyl-L[Aib]KL-NH2)	> 128	> 128	> 128	–	> 128	> 128	> 128	> 128	> 128	–	–	–	–	–	–	–
CCCCCCCC(=O)N[C@@H](CCCCN)C(=O)N[C@@H](CC(C)C)C(=O)NC(C)(C)C(=O)N[C@@H](CC(C)C)C(N)=O [Peptide 17, 1-Oct-Lys-Leu-Aib-Leu-NH2] (Octanoyl-KL[Aib]L-NH2)	> 128	> 128	> 128	–	> 128	> 128	> 128	> 128	> 128	–	–	–	–	–	–	–
